According to ChEMBL document CHEMBL6153078, “Design, synthesis, and biological evaluation of imidazolidinone derivatives as potent PPARα/δ agonists for the treatment of cholestatic liver diseases” (Eur J Med Chem, 2025):

How the values were obtained:
Format in all cases: cell-based
[1] = target: T1, Peroxisome proliferator-activated receptor alpha (Homo sapiens, UniProt Q07869); assay: Agonist activity at GAL4-fused human PPAR-alpha transfected in African green monkey COS7 cells assessed transcriptional activation incubated for 16 hrs by Luciferase assay
T1 sequence (Q07869 whole entry): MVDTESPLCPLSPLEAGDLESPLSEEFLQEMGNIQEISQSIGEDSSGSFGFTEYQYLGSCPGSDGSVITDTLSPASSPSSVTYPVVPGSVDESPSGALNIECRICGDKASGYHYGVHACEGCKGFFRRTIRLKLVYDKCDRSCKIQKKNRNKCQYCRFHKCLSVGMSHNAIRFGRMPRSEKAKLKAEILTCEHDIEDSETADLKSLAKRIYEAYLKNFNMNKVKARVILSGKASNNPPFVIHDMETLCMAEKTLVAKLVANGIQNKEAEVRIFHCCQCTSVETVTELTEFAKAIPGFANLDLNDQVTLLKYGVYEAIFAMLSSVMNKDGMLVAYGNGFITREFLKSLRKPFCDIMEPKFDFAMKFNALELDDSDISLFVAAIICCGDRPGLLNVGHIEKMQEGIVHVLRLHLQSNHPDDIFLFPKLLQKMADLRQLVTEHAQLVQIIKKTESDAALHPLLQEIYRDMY

[2] = target: T2, Peroxisome proliferator-activated receptor delta (Homo sapiens, UniProt Q03181); assay: Agonist activity at GAL4-fused human PPAR-delta transfected in African green monkey COS7 cells assessed transcriptional activation incubated for 16 hrs by Luciferase assay
T2 sequence (Q03181 whole entry): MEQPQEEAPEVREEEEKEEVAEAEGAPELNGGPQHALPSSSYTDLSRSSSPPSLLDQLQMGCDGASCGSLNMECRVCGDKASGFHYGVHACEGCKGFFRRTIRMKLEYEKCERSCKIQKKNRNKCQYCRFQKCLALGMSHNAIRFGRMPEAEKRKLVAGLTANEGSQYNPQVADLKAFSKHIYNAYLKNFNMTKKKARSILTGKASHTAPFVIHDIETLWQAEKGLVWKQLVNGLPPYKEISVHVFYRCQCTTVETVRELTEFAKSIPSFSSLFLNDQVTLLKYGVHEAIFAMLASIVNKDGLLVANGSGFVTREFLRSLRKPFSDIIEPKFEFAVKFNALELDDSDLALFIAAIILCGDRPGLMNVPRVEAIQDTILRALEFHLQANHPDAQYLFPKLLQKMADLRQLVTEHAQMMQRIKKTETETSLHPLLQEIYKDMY

[3] = target: T3, Peroxisome proliferator-activated receptor gamma (Homo sapiens, UniProt P37231); assay: Agonist activity at GAL4-fused human PPAR-gamma transfected in African green monkey COS7 cells assessed transcriptional activation incubated for 16 hrs by Luciferase assay
T3 sequence (P37231 whole entry): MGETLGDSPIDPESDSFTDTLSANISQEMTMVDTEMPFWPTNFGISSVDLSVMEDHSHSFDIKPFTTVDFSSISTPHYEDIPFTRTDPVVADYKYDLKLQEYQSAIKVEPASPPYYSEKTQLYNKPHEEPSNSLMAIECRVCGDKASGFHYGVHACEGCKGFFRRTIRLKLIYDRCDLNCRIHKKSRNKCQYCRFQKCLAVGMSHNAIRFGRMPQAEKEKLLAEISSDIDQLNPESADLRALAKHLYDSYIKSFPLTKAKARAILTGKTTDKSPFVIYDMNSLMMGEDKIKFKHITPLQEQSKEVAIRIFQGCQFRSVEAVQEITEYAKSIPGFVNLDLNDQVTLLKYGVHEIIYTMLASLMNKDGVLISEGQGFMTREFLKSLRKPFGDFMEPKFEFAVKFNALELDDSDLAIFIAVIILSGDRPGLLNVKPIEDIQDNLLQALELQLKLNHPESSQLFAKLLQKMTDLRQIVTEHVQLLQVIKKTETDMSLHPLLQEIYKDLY

| SMILES | EC50 [1] [nM] | EC50 [2] [nM] | EC50 [3] [nM] |
| --- | --- | --- | --- |
| Cc1cc(CN2CCN(c3ccccc3)C2=O)cc(C)c1OC(C)(C)C(=O)O | 436 | 260 | – |
| Cc1cc(CN2CCN(c3ccccc3C(F)(F)F)C2=O)cc(C)c1OC(C)(C)C(=O)O | > 5000 | > 5000 | – |
| Cc1cc(CN2CCN(c3ccc(C(C)C)cc3)C2=O)cc(C)c1OC(C)(C)C(=O)O | – | 69.6 | – |
| Cc1cc(CN2CCN(c3ccc(C(C)(C)C)cc3)C2=O)cc(C)c1OC(C)(C)C(=O)O | – | > 5000 | – |
| Cc1cc(Cn2ncn(-c3ccc(OC(F)(F)F)cc3)c2=O)cc(C)c1OC(C)(C)C(=O)O | 8.5 | – | – |
| Cc1cc(CN2CCN(c3ccc(Cl)cc3)C2=O)cc(C)c1OC(C)(C)C(=O)O | 1020 | – | – |
| CC(C)(Oc1ccc(CN2CCN(c3ccc(C(F)(F)F)cc3)C2=O)cc1)C(=O)O | – | – | > 5000 |
| Cc1cc(CN2CCN(c3ccc(C(F)(F)F)cc3)C2=O)ccc1OC(C)(C)C(=O)O | 175 | – | > 5000 |
| CSc1ccc(C(=O)/C=C/c2cc(C)c(OC(C)(C)C(=O)O)c(C)c2)cc1 [ELAFIBRANOR] | 888 | – | 1570 |
| COc1ccc(N2CCN(Cc3cc(C)c(OC(C)(C)C(=O)O)c(C)c3)C2=O)cc1 | 121 | 263 | 2580 |

The remaining lines, values ahead:

| EC50 [1] [nM] | EC50 [2] [nM] | EC50 [3] [nM] | SMILES |
| --- | --- | --- | --- |
| 7.3 | – | 1290 | CCc1ccc(N2CCN(Cc3cc(C)c(OC(C)(C)C(=O)O)c(C)c3)C2=O)cc1 |
| 40.4 | – | 1200 | Cc1ccc(N2CCN(Cc3cc(C)c(OC(C)(C)C(=O)O)c(C)c3)C2=O)cc1 |
| 89.5 | 39 | 2130 | Cc1cc(CN2CCN(c3ccc(F)cc3)C2=O)cc(C)c1OC(C)(C)C(=O)O |
| 4.7 | 36.9 | 416 | Cc1cc(CN2CCN(c3ccc(OC(F)(F)F)cc3)C2=O)cc(C)c1OC(C)(C)C(=O)O |
| 14.2 | 40.9 | 884 | Cc1cc(CN2CCN(c3cccc(C(F)(F)F)c3)C2=O)cc(C)c1OC(C)(C)C(=O)O |
